Converted amounts (≈) assume the structure as drawn. Each block holds one molecule with its values, some of them ahead of it. The source made the active and inactive calls. The calls are words filed in the database; no cut-off is given here.
Columns and labels:
[1] = system: Human immunodeficiency virus 1; assay: Antiviral activity against Human immunodeficiency virus 1 infected human MT4 cells assessed as inhibition of virus-induced cytopathogenicity after 4 days by MTT assay; format: functional, organism-based; settings: Human immunodeficiency virus 1, MT4, 96 h
[2] = Cytotoxicity against Homo sapiens (human) MT4 cells after 96 hr by MTT assay; format: cell-based
[3] = system: Staphylococcus aureus; assay: Antibacterial activity against Staphylococcus aureus ATCC 6538P at 400 ug after 18 hr by disk diffusion method; format: functional
[4] = system: Proteus vulgaris; assay: Antibacterial activity against Proteus vulgaris NCTC 4635 at 400 ug after 18 hr by disk diffusion method; format: functional
[5] = system: Pseudomonas aeruginosa; assay: Antibacterial activity against Pseudomonas aeruginosa ATCC 15442 at 400 ug after 18 hr by disk diffusion method; format: functional
[6] = system: Candida parapsilosis; assay: Antifungal activity against Candida parapsilosis ATCC 22019 at 400 ug after 24 to 48 hr by disk diffusion method; format: functional
[7] = system: Pseudomonas aeruginosa; assay: Antibacterial activity against Pseudomonas aeruginosa NCTC 6749 at 400 ug after 18 hr by disk diffusion method; format: functional, organism-based
[8] = system: Staphylococcus aureus; assay: Antibacterial activity against Staphylococcus aureus ATCC 29213 at 400 ug after 18 hr by disk diffusion method; format: functional
[9] = system: Bacillus subtilis; assay: Antibacterial activity against Bacillus subtilis ATCC 6633 at 400 ug after 18 hr by disk diffusion method; format: functional
[10] = system: Bordetella bronchiseptica; assay: Antibacterial activity against Bordetella bronchiseptica ATCC 461 at 400 ug after 18 hr by disk diffusion method; format: functional
[11] = system: Enterococcus hirae; assay: Antibacterial activity against Enterococcus hirae ATCC 10541 at 400 ug after 18 hr by disk diffusion method; format: functional
[12] = system: Escherichia coli; assay: Antibacterial activity against Escherichia coli ATCC 25922 at 400 ug after 18 hr by disk diffusion method; format: functional
[13] = system: Staphylococcus aureus; assay: Antibacterial activity against Staphylococcus aureus ATCC 25923 at 400 ug after 18 hr by disk diffusion method; format: functional
[14] = system: Escherichia coli; assay: Antibacterial activity against Escherichia coli NCTC 8196 at 400 ug after 18 hr by disk diffusion method; format: functional
[15] = system: Escherichia coli; assay: Antibacterial activity against Escherichia coli ATCC 10538 at 400 ug after 18 hr by disk diffusion method; format: functional
[16] = system: Candida albicans; assay: Antifungal activity against Candida albicans ATCC 90028 at 400 ug after 24 to 48 hr by disk diffusion method; format: functional
[17] = system: Staphylococcus aureus; assay: Antibacterial activity against Staphylococcus aureus NCTC 4163 at 400 ug after 18 hr by disk diffusion method; format: functional
[18] = system: Candida albicans; assay: Antifungal activity against Candida albicans ATCC 10231 at 400 ug after 24 to 48 hr by disk diffusion method; format: functional
[19] = system: Bacillus subtilis; assay: Antibacterial activity against Bacillus subtilis ATCC 6633 after 18 hr; format: functional; settings: ATCC 6633, 18 h
[20] = system: Pseudomonas aeruginosa; assay: Antibacterial activity against Pseudomonas aeruginosa NCTC 6749 after 18 hr; format: functional, organism-based
[21] = system: Staphylococcus aureus; assay: Antibacterial activity against Staphylococcus aureus ATCC 29213 after 18 hr; format: functional; settings: ATCC 29213, 18 h
[22] = system: Candida parapsilosis; assay: Antifungal activity against Candida parapsilosis ATCC 22019 after 18 hr; format: functional; settings: Lodderomyces parapsilosis, ATCC 22019, 18 h
[23] = system: Escherichia coli; assay: Antibacterial activity against Escherichia coli ATCC 10538 after 18 hr; format: functional, organism-based
[24] = system: Pseudomonas aeruginosa; assay: Antibacterial activity against Pseudomonas aeruginosa ATCC 15442 after 18 hr; format: functional; settings: ATCC 15442, 18 h
[25] = system: Proteus vulgaris; assay: Antibacterial activity against Proteus vulgaris NCTC 4635 after 18 hr; format: functional; settings: NCTC 4635, 18 h
[26] = system: Escherichia coli; assay: Antibacterial activity against Escherichia coli ATCC 25922 after 18 hr; format: functional, organism-based
[27] = system: Escherichia coli; assay: Antibacterial activity against Escherichia coli NCTC 8196 after 18 hr; format: functional, organism-based
[28] = system: Candida albicans; assay: Antifungal activity against Candida albicans ATCC 90028 after 18 hr; format: functional; settings: ATCC 90028, 18 h
[29] = system: Staphylococcus aureus; assay: Antibacterial activity against Staphylococcus aureus ATCC 25923 after 18 hr; format: functional; settings: ATCC 25923, 18 h
[30] = system: Enterococcus hirae; assay: Antibacterial activity against Enterococcus hirae ATCC 10541 after 18 hr; format: functional; settings: ATCC 10541, 18 h
[31] = system: Staphylococcus aureus; assay: Antibacterial activity against Staphylococcus aureus ATCC 6538P after 18 hr; format: functional
[32] = system: Bordetella bronchiseptica; assay: Antibacterial activity against Bordetella bronchiseptica ATCC 461 after 18 hr; format: functional, organism-based
[33] = system: Candida albicans; assay: Antifungal activity against Candida albicans ATCC 10231 after 18 hr; format: functional; settings: ATCC 10231, 18 h
[34] = system: Staphylococcus aureus; assay: Antibacterial activity against Staphylococcus aureus NCTC 4163 after 18 hr; format: functional; settings: NCTC 4163, 18 h

Compound: CC1(C)Cc2c(Br)c(Br)c(Br)c(OCC(O)CN3CCN(c4ccccc4)CC3)c2O1 (configuration not stated)
- EC50 [1]: > 31 µM
- CC50 at 96 h [2]: 31 µM

Compound: CC1(C)Cc2cccc(O)c2O1
- EC50 [1]: > 100 µM
- diameter of the inhibition zone (DIZ) [3]: inactive
- diameter of the inhibition zone (DIZ) [4]: inactive
- diameter of the inhibition zone (DIZ) [5]: inactive
- diameter of the inhibition zone (DIZ) [6]: inactive
- CC50 at 96 h [2]: 100 µM
- diameter of the inhibition zone (DIZ) [7]: inactive
- diameter of the inhibition zone (DIZ) [8]: inactive
- diameter of the inhibition zone (DIZ) [9]: inactive
- diameter of the inhibition zone (DIZ) [10]: inactive
- diameter of the inhibition zone (DIZ) [11]: inactive
- diameter of the inhibition zone (DIZ) [12]: inactive
- diameter of the inhibition zone (DIZ) [13]: inactive
- diameter of the inhibition zone (DIZ) [14]: inactive
- diameter of the inhibition zone (DIZ) [15]: inactive
- diameter of the inhibition zone (DIZ) [16]: inactive
- diameter of the inhibition zone (DIZ) [17]: inactive
- diameter of the inhibition zone (DIZ) [18]: inactive

- MIC [19]: 12.5 µg/mL (≈ 24.9 µM)
- MIC [20]: inactive
- MIC [21]: 100 µg/mL (≈ 199 µM)
- MIC [22]: 100 µg/mL (≈ 199 µM)
- MIC [23]: inactive
- MIC [24]: 25 µg/mL (≈ 49.8 µM)
- MIC [25]: 25 µg/mL (≈ 49.8 µM)
- MIC [26]: inactive
- MIC [27]: inactive
- MIC [28]: 200 µg/mL (≈ 398 µM)
- MIC [29]: 100 µg/mL (≈ 199 µM)
- MIC [30]: 50 µg/mL (≈ 99.6 µM)
- MIC [31]: 50 µg/mL (≈ 99.6 µM)
- MIC [32]: inactive
- MIC [33]: 200 µg/mL (≈ 398 µM)
- MIC [34]: 50 µg/mL (≈ 99.6 µM)
Compound: CN(C)CC(O)COc1c(Br)c(Br)c(Br)c2c1OC(C)(C)C2 (configuration not stated)
- zone of inhibition at 400 µg/disc ([3]; read-out: DIZ): 19 mm
- zone of inhibition at 400 µg/disc ([4]; NCTC 4635, 18 h, read-out: DIZ): 23 mm
- zone of inhibition at 400 µg/disc ([5]; ATCC 15442, 18 h, read-out: DIZ): 23 mm
- zone of inhibition at 400 µg/disc ([6]; Lodderomyces parapsilosis, read-out: DIZ): 20 mm
- diameter of the inhibition zone (DIZ) [7]: inactive
- zone of inhibition at 400 µg/disc ([8]; ATCC 29213, 18 h, read-out: DIZ): 19 mm
- zone of inhibition at 400 µg/disc ([9]; ATCC 6633, 18 h, read-out: DIZ): 24 mm
- zone of inhibition at 400 µg/disc ([10]; ATCC 461, 18 h, read-out: DIZ): 13 mm
- zone of inhibition at 400 µg/disc ([11]; ATCC 10541, 18 h, read-out: DIZ): 19 mm
- zone of inhibition at 400 µg/disc ([12]; ATCC 25922, 18 h, read-out: DIZ): 13 mm
- zone of inhibition at 400 µg/disc ([13]; ATCC 25923, 18 h, read-out: DIZ): 18 mm
- zone of inhibition at 400 µg/disc ([14]; NCTC 8196, 18 h, read-out: DIZ): 15 mm
- zone of inhibition at 400 µg/disc ([15]; ATCC 10538, 18 h, read-out: DIZ): 13 mm
- zone of inhibition at 400 µg/disc ([16]; read-out: DIZ): 15 mm
- zone of inhibition at 400 µg/disc ([17]; NCTC 4163, 18 h, read-out: DIZ): 18 mm
- zone of inhibition at 400 µg/disc ([18]; read-out: DIZ): 17 mm
